According to patent US11214578B2, “Urea/carbamates FAAH MAGL or dual FAAH/MAGL inhibitors and uses thereof” (Northeastern University, priority 2014, dated 2022):

Experiments:
Assay type in all cases: biochemical
Human FAAH (MBPΔTMhFAAH) = target: T1, Human FAAH (MBPΔTMhFAAH) (Homo sapiens, UniProt O00519); assay: Fluorescent assay protocol for hFAAH; settings: human FAAH (MBP fusion, ΔTM), procedure as for rFAAH
T1 construct: made in house; host or cells: E. coli (pMALcE4 vector)
T1 sequence (O00519 30-579 limits assumed): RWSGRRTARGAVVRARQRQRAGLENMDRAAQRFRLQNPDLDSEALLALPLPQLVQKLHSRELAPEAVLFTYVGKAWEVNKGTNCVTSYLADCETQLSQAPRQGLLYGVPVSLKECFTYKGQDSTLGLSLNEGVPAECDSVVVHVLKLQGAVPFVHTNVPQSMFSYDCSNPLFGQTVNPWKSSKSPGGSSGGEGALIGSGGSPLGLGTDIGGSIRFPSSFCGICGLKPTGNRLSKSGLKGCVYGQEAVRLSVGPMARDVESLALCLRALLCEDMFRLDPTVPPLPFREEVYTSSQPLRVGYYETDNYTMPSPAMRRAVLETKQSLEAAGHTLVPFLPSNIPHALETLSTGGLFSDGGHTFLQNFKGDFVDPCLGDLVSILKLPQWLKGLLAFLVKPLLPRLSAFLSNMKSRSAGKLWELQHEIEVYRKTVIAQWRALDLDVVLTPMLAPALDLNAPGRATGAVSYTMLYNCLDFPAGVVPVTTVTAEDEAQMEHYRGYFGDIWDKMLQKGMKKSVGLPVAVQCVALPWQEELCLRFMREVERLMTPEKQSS
How it was run: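 MBP-fused ΔTM human FAAH from E. coli, pre-incubated 15 min at 25 °C with compound in 50 mM HEPES, 1 mM EDTA, 0.1% BSA, pH 7.4 (DMSO below 8%). Substrate AAMCA 20 μM (2×Km); fluorescence (ex 360/em 460) at 3 h gave % inhibition vs uninhibited control, triplicate, IC50 fitted.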

ΔTM rat FAAH = target: T2, ΔTM rat FAAH (Rattus norvegicus, UniProt P97612); assay: Fluorescent assay protocol for ΔTM rat FAAH (AAMCA substrate); settings: 15 min preincubation, read-out: IC50 rFAAH
T2 construct: Preparation of Transmembrane Domain-Deleted Rat FAAH (ΔTM rFAAH); made in house; host or cells: E. coli
T2 sequence (P97612 30-579 limits assumed): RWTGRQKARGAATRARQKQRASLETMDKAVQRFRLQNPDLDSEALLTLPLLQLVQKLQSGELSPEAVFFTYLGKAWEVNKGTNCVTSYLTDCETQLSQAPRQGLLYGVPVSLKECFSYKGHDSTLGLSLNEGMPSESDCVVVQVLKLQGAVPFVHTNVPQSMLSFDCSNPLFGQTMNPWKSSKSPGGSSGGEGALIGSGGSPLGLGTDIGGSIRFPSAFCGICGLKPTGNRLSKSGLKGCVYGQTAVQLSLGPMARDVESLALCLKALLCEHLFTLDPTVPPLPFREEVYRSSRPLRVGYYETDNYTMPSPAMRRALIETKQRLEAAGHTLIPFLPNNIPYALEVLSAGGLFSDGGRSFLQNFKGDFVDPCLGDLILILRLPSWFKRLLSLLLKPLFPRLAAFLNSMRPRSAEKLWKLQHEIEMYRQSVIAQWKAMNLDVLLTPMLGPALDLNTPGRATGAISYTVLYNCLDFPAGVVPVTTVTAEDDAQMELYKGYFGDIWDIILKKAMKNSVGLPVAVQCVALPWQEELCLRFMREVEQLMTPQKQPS
How it was run: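 ΔTM rat FAAH (15 μg) was pre-incubated 15 min at 25° C with compound (screening at 1, 10 and 100 μM), then reacted with the fluorigenic substrate AAMCA. Percent inhibition came from fluorescence at 3 h (linear kinetics) relative to no-inhibitor controls, in triplicate.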

Rat MAGL (rMAGL) = target: T3, Rat MAGL (rMAGL) (Rattus norvegicus, UniProt Q8R431); assay: Fluorescent assay protocol for rMAGL; settings: recombinant rat MAGL, procedure as for hMAGL; read-out: IC50 rMAGL
T3 construct: made in house; host or cells: E. coli
T3 sequence (Q8R431 1-303): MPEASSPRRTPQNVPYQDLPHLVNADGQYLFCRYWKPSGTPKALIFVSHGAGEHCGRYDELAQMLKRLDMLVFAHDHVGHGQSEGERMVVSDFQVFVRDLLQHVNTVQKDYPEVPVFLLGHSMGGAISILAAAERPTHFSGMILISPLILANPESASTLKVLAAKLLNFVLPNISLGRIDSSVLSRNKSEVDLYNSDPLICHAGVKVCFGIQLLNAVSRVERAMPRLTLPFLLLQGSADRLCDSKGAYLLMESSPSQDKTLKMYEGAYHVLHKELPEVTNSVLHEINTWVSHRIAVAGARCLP
How it was run: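 Rat MAGL run as for the human enzyme: AHMMCE substrate hydrolysis to fluorescent coumarin followed at 25° C. for 120 min, read every 15 min at 360/460 nm.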

Human MAGL (hMAGL) = target: T4, Human MAGL (hMAGL) (Homo sapiens, UniProt Q99685); assay: Fluorescent assay protocol for hMAGL (AHMMCE substrate); settings: recombinant human MAGL, AHMMCE substrate, 15 min preincubation; read-out: IC50 hMAGL
T4 construct: hexahistidine; made in house; host or cells: E. coli
T4 sequence (Q99685 1-303): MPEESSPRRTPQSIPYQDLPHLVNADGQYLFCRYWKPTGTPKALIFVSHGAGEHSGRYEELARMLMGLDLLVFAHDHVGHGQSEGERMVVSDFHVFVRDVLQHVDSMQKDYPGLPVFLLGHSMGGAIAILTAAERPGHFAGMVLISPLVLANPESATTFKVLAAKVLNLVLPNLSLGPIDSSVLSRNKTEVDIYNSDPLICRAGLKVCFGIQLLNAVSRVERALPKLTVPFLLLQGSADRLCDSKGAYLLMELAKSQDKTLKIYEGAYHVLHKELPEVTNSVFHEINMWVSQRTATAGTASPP
How it was run: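 Hydrolysis of AHMMCE by human MAGL was monitored at 25°C for 120 min, with fluorescence at 360/460 nm recorded every 15 min and converted to 4-methylcoumarin using external standards. IC50 values were derived from triplicate wells at each inhibitor concentration.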

Compound | IC50 (Human FAAH (MBPΔTMhFAAH)) | IC50 (ΔTM rat FAAH) | IC50 (Rat MAGL (rMAGL)) | IC50 (Human MAGL (hMAGL))
O=C(N1CCN(C(c2ccc(F)cc2)c2ccc(F)cc2)CC1)n1nnnc1Cc1ccccc1 [Example 32, (5-benzyl-1H-tetrazol-1-yl)(4-(bis(4-fluorophenyl)methyl)piperazin-1-yl)methanone] | 110 to 1000 nM | 110 to 1000 nM | > 1000 nM | > 1000 nM
O=C(Oc1cccc(N2CCS(=O)(=O)CC2)c1)N1CCN(Cc2cccc(Oc3ccccc3)c2)CC1 [Example 71, 3-(1,1-dioxidothiomorpholino)phenyl 4-(3-phenoxybenzyl)piperazine-1-carboxylate] | 110 to 1000 nM | 110 to 1000 nM | 10 to 100 nM | 10 to 100 nM
Cc1ccc(S(=O)(=O)N2CCN(C(=O)Oc3c(F)cccc3F)CC2)cc1 [Example 65, 2,6-difluorophenyl 4-tosylpiperazine-1-carboxylate] | > 1000 nM | > 1000 nM | 110 to 1000 nM | 110 to 1000 nM
O=C(Oc1cccc(Cl)n1)N1CCC(C(c2ccccc2)c2ccccc2)CC1 [Example 54, 6-Chloropyridin-2-yl 4-(benzhydryl)piperidine-1-carboxylate] | 10 to 100 nM | 110 to 1000 nM | 110 to 1000 nM | 110 to 1000 nM
O=C(N1CCCCC1)N1CC(OCc2ccc(Br)cc2)C1 [Example 88] | 10 to 100 nM | 10 to 100 nM | 10 to 100 nM | 10 to 100 nM
O=C(Nc1cccnc1)N1CC(OCc2ccc(Br)cc2)C1 [Example 82, 3-(4-Bromobenzyloxy)-N-(pyridin-3-yl)azetidine-1-carboxamide] | 110 to 1000 nM | 110 to 1000 nM | > 1000 nM | > 1000 nM
O=C(Oc1cccc(N2CCS(=O)(=O)CC2)c1)N1CCN(c2ccccc2)CC1 [Example 69, 3-(1,1-dioxidothiomorpholino)phenyl 4-phenylpiperazine-1-carboxylate] | 110 to 1000 nM | 110 to 1000 nM | 10 to 100 nM | 10 to 100 nM
C[C@H]1CN(C(=O)Nc2cccc(-c3cccc(C#N)c3)c2)CCN1Cc1ccc2ccccc2n1 [Example 19, (S)—N-(3′-cyano-[1,1′-biphenyl]-3-yl)-3-methyl-4-(quinolin-2-ylmethyl)piperazine-1-carboxamide] | 110 to 1000 nM | 110 to 1000 nM | > 1000 nM | > 1000 nM
O=C(Oc1cccc(Cl)n1)N1CCC(OC(c2ccccc2)c2ccccc2)CC1 [Example 57, 6-chloropyridin-2-yl 4-(benzhydryloxy)piperidine-1-carboxylate] | > 1000 nM | > 1000 nM | 10 to 100 nM | 10 to 100 nM
O=C(Oc1cccc(N2CCS(=O)(=O)CC2)c1)N1CCC(c2ccccc2)CC1 [Example 70, 3-(1,1-Dioxothiomorpholin-4-yl)phenyl 4-phenylpiperidine-1-carboxylate] | 110 to 1000 nM | 110 to 1000 nM | 110 to 1000 nM | 110 to 1000 nM
NC(=O)c1cccc(-c2cccc(NC(=O)N3CCN(c4ccccc4)CC3)c2)c1 [Example 11, N-(3′-carbamoyl-[1,1′-biphenyl]-3-yl)-4-phenylpiperazine-1-carboxamide] | 10 to 100 nM | 10 to 100 nM | > 1000 nM | > 1000 nM
O=C(N1CC(N2CCC(c3ccccc3)CC2)C1)n1cncn1 [Example 90] | 10 to 100 nM | 10 to 100 nM | 10 to 100 nM | 10 to 100 nM
C[C@H]1CN(Cc2cccc(Oc3ccccc3)c2)CCN1C(=O)Nc1cccc(-c2cccc(C(N)=O)c2)c1 [Example 4, (S)—N-(3′-carbamoyl-[1,1′-biphenyl]-3-yl)-2-methyl-4-(3-phenoxybenzyl)piperazine-1-carboxamide] | 10 to 100 nM | 10 to 100 nM | > 1000 nM | > 1000 nM
O=C(N1CC(N2CCC(Cc3ccccc3)CC2)C1)n1cnc(-c2ccccc2)c1 [Example 84, (3-(4-Benzylpiperidine)azetidin-1-yl)(4-phenyl[1H]imizadol-1-yl)methanone] | 10 to 100 nM | 10 to 100 nM | > 1000 nM | > 1000 nM
